Assay results from publication PMC6454892 (Nature chemistry, 2018).

Test system: A. baumannii
Assay: MIC screening against A. baumannii
Format: cell-based
Settings: tested separately, unconjugated

CN[C@H](CC(C)C)C(=O)N[C@H]1C(=O)N[C@@H](CC(N)=O)C(=O)N[C@H]2C(=O)N[C@H]3C(=O)N[C@H](C(=O)N[C@H](C(=O)O)c4cc(O)cc(O)c4-c4cc3ccc4O)[C@H](O)c3ccc(c(Cl)c3)Oc3cc2cc(c3O[C@@H]2O[C@H](CO)[C@@H](O)[C@H](O)[C@H]2O[C@H]2C[C@](C)(N)[C@H](O)[C@H](C)O2)Oc2ccc(cc2Cl)[C@H]1O [vancomycin]
efficacy against A. baumannii (in words): ineffective
